Data as given in PMC7191905, “Synthesis and biological evaluation of new 3(2H)-pyridazinone derivatives as non-toxic anti-proliferative compounds against human colon carcinoma HCT116 cells” (Journal of Enzyme Inhibition and Medicinal Chemistry, 2020).
Converted amounts (≈) assume the structure as drawn. “And” between values parts separate entries of the source, which are not always exact repeats. Equal values may be shown once. Read-outs that look alike come from different tables or passages of the source.

Key:
HCT116 cells [1] = experiment: MTT viability of HCT116 cells in basal conditions; assay type: cell-based, human; conditions: for IC50: Homo sapiens
Experimental: (§1) HCT116 cell line (ATCC® CCL-247™) was cultured in DMEM (Euroclone) supplemented with 10% (v/v) heat-inactivated foetal bovine serum and 1.2% (v/v) penicillin G/streptomycin in 75 cm^2 tissue culture flask (n=5 individual culture flasks for each condition) as previously reported with or without serotonin treatment.
(§2) In the same condition, the kynurenic acid (KA) extracellular level was determined through a validated high performance liquid chromatography (HPLC)-fluorimetric method. To assess the cytotoxicity of synthesised compounds (VIa–o), a viability assay was performed on 96 microwell plates, using 3-(4,5-dimethylthiazol-2-yl)-2,5-diphenyltetrazolium bromide (MTT) test. Cells were incubated with compounds (10 µg/mL) for 24 h. An aliquot of 10 µL of MTT (5 mg/mL) was added to each well and incubated for 3 h. The viability of HCT116 cell line was evaluated both in basal conditions and after challenging with serotonin (5-HT) at 1 ng/mL. The anti-proliferative effects were compared to that induced by daunorubicin (0.1–20 µg/mL), used as reference drug.
Considering the effects induced by all compounds on HCT116 viability and KA production, compounds VIc, VIe and VIk were further assayed in order to deepen our knowledge about their anti-proliferative effects, in basal conditions. Specifically, HCT116 cells were stimulated with the aforementioned compounds, in a wider concentration range (0.1–20 µg/mL), with respect to the initial test. Additionally, the anti-proliferative effects induced by these compounds were compared with that of daunorubicin, used as anti-tumoral reference drug in the same concentration range.

HCT116 cells [2] = experiment: Wound healing paradigm (spontaneous migration of HCT116 cells); assay type: cell-based, human; conditions: compounds at their IC50 (VIe 3.09 µg/mL, VIk 2.73 µg/mL), 48 h after lesion of cell monolayer
Experimental: The detailed protocol related to wound healing experimental model was described in our previous article.
Finally, considering their potencies in reducing HCT116 cell viability, compounds VIe and VIk were further studied in order to evaluate their effects on the spontaneous migration of HCT116 cells, through the wound healing paradigm. In this experiment, HCT116 cells were treated with compounds VIe and VIk at their respective IC50 values. The spontaneous migration of HCT116 cells was monitored in the 48 h following the experimental lesion of cell monolayer. The null effects on sponstaneous migration (Figure 6) rule out any involvement of the tested compounds in altering the invasion capacity of human colon cancer cells.

[3] = system: kynurenic acid (KA) release from colon cancer HCT116 cells; experiment: Extracellular kynurenic acid (KA) level of 5-HT-stimulated HCT116 cells (HPLC-fluorimetric); assay type: cell-based, human; conditions: for Effect on 5-HT-induced KA depletion: compounds 10 µg/mL, 5-HT 1 ng/mL, vs 5-HT group
Experimental: as §1, §2
Furthermore, compounds were assayed for evaluating modulatory effects on the extracellular level of KA, one of the two main kynurenine metabolites. Kynurenic acid was reported to be produced in multiple tissues, including brain and peripheral organs, although pharmacokinetic studies excluded any possibility of the peripheral pool to cross blood-brain barrier. In the brain, the kynurenine-derived kynurenic acid was described as a reliable marker of neuroprotection[28]^,[29], whereas it seems to be involved in inflammatory response at the peripheral level. Kynurenic acid was also described as an anti-proliferative factor towards colon, renal, and glioma cells. Specifically, this marker was considered as a potential chemopreventive agent against colon cancer[32]^,[33]. […] They were able in potentiating 5-HT-induced KA depletion, as well.

[4] = HCT-116, basal conditions, concentration range 0.1–20 µg/mL, MTT test, read-out: IC50 (HCT116 cell viability)

Row | melting point | Structure (SMILES) | further results
1 | 210 °C | COc1ccc(-c2ccc(=O)n(CC(=O)NN=Cc3ccccc3C)n2)cc1F [VIe, N’-(2-methylbenzylidene)-2–(3-(3-fluoro-4-methoxyphenyl)-6-oxopyridazin-1(6H)-yl)acetohydrazide] | IC50 (HCT116 cells [1]; [4]): 3.09 µg/mL (≈ 7.83 µM); Effect on spontaneous migration of HCT116 cells (HCT116 cells [2]): null effects
2 |  | COc1cccc2c1C(=O)c1c(O)c3c(c(O)c1C2=O)C[C@@](O)(C(C)=O)C[C@@H]3O[C@H]1C[C@H](N)[C@H](O)[C@H](C)O1 [daunorubicin, reference compound] | IC50 (HCT116 cells [1]; HCT-116, read-out: IC50 (HCT116 cell viability)): 1.39 µg/mL (≈ 2.63 µM)
3 | 207 °C | COc1ccc(C=NNC(=O)Cn2nc(-c3ccc(OC)c(F)c3)ccc2=O)cc1 [VIh, N’-(4-methoxybenzylidene)-2–(3-(3-fluoro-4-methoxyphenyl)-6-oxopyridazin-1(6H)-yl)acetohydrazide] | 
4 | 265 °C | COc1ccc(-c2ccc(=O)n(CC(=O)NN=Cc3ccc([N+](=O)[O-])cc3)n2)cc1F [VIi, N’-(4-nitrobenzylidene)-2–(3-(3-fluoro-4-methoxyphenyl)-6-oxopyridazin-1(6H)-yl)acetohydrazide] | 
5 |  | NCCc1c[nH]c2ccc(O)cc12 [Compound 5-HT, serotonin, reference compound] | Effect of 5-HT on HCT116 cell viability (HCT116 cells [1]; 5-HT 10 pg/mL – 1 µg/mL, MTT test): increased in a concentration-dependent manner
6 | 252 °C | COc1ccc(-c2ccc(=O)n(CC(=O)NN=Cc3ccc(C(F)(F)F)cc3)n2)cc1F [VIc, N’-(4-trifluoromethylbenzylidene)-2–(3-(3-fluoro-4-methoxyphenyl)-6-oxopyridazin-1(6H)-yl)acetohydrazide] | KA level compared to basal condition (CTR group) ([3]; compound 10 µg/mL, 5-HT-stimulated HCT116 cells): even higher compared to basal condition; Effect on 5-HT-induced KA depletion [3]: able to blunt 5-HT-induced KA depletion; IC50 (HCT116 cells [1]; [4]): 15 µg/mL (≈ 33.5 µM); IC50 fold higher compared to daunorubicin (HCT116 cells [1]; basal conditions, HCT116 viability): at least 10 fold
7 | 164 °C | COc1ccc(-c2ccc(=O)n(CC(=O)NN=Cc3ccc(C(C)C)cc3)n2)cc1F [VIj, N’-(4-isopropylbenzylidene)-2–(3-(3-fluoro-4-methoxyphenyl)-6-oxopyridazin-1(6H)-yl)acetohydrazide] | 
8 | 214 °C | COc1ccc(-c2ccc(=O)n(CC(=O)NN=Cc3ccccc3OC)n2)cc1F [VIf, N’-(2-methoxybenzylidene)-2–(3-(3-fluoro-4-methoxyphenyl)-6-oxopyridazin-1(6H)-yl)acetohydrazide] | 
9 | 189 °C | COc1ccc(-c2ccc(=O)n(CC(=O)NN=Cc3ccccc3Br)n2)cc1F [VIk, N’-(2-bromobenzylidene)-2–(3-(3-fluoro-4-methoxyphenyl)-6-oxopyridazin-1(6H)-yl)acetohydrazide] | IC50 (HCT116 cells [1]; [4]): 2.73 µg/mL (≈ 5.94 µM); Effect on spontaneous migration of HCT116 cells (HCT116 cells [2]): null effects
10 | 220 °C | COc1ccc(-c2ccc(=O)n(CC(=O)NN=Cc3ccc(C)cc3)n2)cc1F [VIg, N’-(4-methylbenzylidene)-2–(3-(3-fluoro-4-methoxyphenyl)-6-oxopyridazin-1(6H)-yl)acetohydrazide] | 
11 | 132 °C | COc1ccc(-c2ccc(=O)n(CC(=O)NN=Cc3ccccc3)n2)cc1F [VIa, N’-benzylidene-2-(3-(3-fluoro-4-methoxyphenyl)-6-oxopyridazin-1(6H)-yl)acetohydrazide] | Effect on 5-HT-induced KA depletion [3]: failed to prevent the inhibition of KA level
12 | 229 °C | COc1ccc(-c2ccc(=O)n(CC(=O)NN=Cc3ccc(Cl)cc3Cl)n2)cc1F [VIo, N’-(2,4-dichlorobenzylidene)-2–(3-(3-fluoro-4-methoxyphenyl)-6-oxopyridazin-1(6H)-yl)acetohydrazide] | 
13 | 222 °C and 224 °C | COc1ccc(-c2ccc(=O)n(CC(=O)NN=Cc3ccccc3F)n2)cc1F [VId, N’-(2-fluorobenzylidene)-2–(3-(3-fluoro-4-methoxyphenyl)-6-oxopyridazin-1(6H)-yl)acetohydrazide] | 
14 | 256 °C | COc1ccc(-c2ccc(=O)n(CC(=O)NN=Cc3ccc(Br)cc3)n2)cc1F [VIm, N’-(4-bromobenzylidene)-2–(3-(3-fluoro-4-methoxyphenyl)-6-oxopyridazin-1(6H)-yl)acetohydrazide] | 
15 | 238 °C | COc1ccc(-c2ccc(=O)n(CC(=O)NN=Cc3ccc(F)cc3)n2)cc1F [VIb, N’-(4-fluorobenzylidene)-2–(3-(3-fluoro-4-methoxyphenyl)-6-oxopyridazin-1(6H)-yl)acetohydrazide] | Effect on 5-HT-induced KA depletion [3]: failed to prevent the inhibition of KA level
16 | 251 °C | COc1ccc(-c2ccc(=O)n(CC(=O)NN=Cc3ccc(O)cc3)n2)cc1F [VIn, N’-(4-hydroxybenzylidene)-2–(3-(3-fluoro-4-methoxyphenyl)-6-oxopyridazin-1(6H)-yl)acetohydrazide] | 
